Assay results published in US20090023773A1, “COMPOSITIONS AND METHODS FOR MODULATING GATED ION CHANNELS” (PainCeptor Pharma Corporation, priority 2007, published 2009).

biological target: T1, recombinant homomeric hASIC1a channels (Homo sapiens, UniProt P78348); test: Two-electrode voltage clamp in Xenopus laevis oocytes expressing gated ion channels (Example 4); type: cell-based; settings: Table 1; generated using oocytes as in Example 4
T1 construct: expressed in transfected cells; host or cells: Xenopus laevis oocytes (nuclear microinjection of expression vector such as pcDNA3)
T1 sequence (P78348 1-528): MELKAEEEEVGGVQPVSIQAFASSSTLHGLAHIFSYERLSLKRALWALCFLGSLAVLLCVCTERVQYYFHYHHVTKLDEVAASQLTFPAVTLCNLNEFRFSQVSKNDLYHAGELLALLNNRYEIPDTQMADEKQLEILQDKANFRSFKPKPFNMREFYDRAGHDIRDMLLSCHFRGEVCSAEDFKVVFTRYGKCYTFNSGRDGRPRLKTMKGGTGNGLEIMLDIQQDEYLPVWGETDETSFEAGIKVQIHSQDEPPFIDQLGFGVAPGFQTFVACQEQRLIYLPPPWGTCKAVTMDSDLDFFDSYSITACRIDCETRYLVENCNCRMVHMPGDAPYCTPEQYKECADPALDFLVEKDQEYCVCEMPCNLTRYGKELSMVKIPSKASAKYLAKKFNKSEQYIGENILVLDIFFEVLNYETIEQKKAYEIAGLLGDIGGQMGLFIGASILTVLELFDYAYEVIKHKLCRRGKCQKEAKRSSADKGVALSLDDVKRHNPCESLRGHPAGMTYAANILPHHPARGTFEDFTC

Row | Compound | IC50
1 | Cc1cc(OC2CCN(Cc3ccccc3C#N)CC2)c2cccc(F)c2n1 [Compound 17] | 0.1 to 10 µM
2 | C=CCOC(=O)N1CCC(Oc2nc(C)nc3ccccc23)CC1 [Compound 10] | 0.1 to 10 µM
3 | Cc1cc(OC2CCN(Cc3ccccc3)CC2)c2cccc(O)c2n1 [Compound 21] | > 30 µM
4 | Cc1nc(OC2CCN(Cc3ccccc3)CC2)c2ccccc2n1 [Compound 7] | 10.1 to 20 µM
5 | COc1cccc2c(OC3CCN(Cc4ccccc4)CC3)cc(C)nc12 [Compound 11] | 0.1 to 10 µM
6 | Cc1cc(OC2CCN(Cc3cccnc3)CC2)c2cccc(F)c2n1 [Compound 3] | 0.1 to 10 µM
7 | Cc1cc(OC2CCN(Cc3cccc(O)c3)CC2)c2ccccc2n1 [Compound 22] | 0.1 to 10 µM

Results, then the compound that gave them:

Row | IC50 | Compound
8 | > 30 µM | Cc1nc(OC2CCN(Cc3ccccc3C#N)CC2)c2ccccc2n1 [Compound 9]
9 | > 30 µM | Cc1cc(OC2CCN(Cc3c(F)cccc3C(=O)O)CC2)c2cccc(F)c2n1 [Compound 23]
10 | > 30 µM | Cc1nc(OC2CCN(Cc3ccccc3F)CC2)c2ccccc2n1 [Compound 8]
11 | > 30 µM | Cc1cc(OC2CCN(Cc3ccccc3C(=O)O)CC2)c2cc(O)ccc2n1 [Compound 24]
12 | 20.1 to 30 µM | O=C(O)c1cc(OC2CCN(Cc3ccccc3)CC2)c2ccccc2n1 [Compound 12]
13 | 0.1 to 10 µM | Cc1cc(OC2CCN(Cc3ccccc3F)C(C)C2)c2ccccc2n1 (stereo not drawn) [Compound 5]
14 | > 30 µM | Cc1cc(OC2CCCN(Cc3ccccc3)C2)c2ccccc2n1 (stereo not drawn) [Compound 19]
15 | 0.1 to 10 µM | Cc1cc(OC2CCN(Cc3ccc(O)cc3)CC2)c2cccc(F)c2n1 [Compound 26, 4-((4-(8-fluoro-2-methylquinolin-4-yloxy)piperidin-1-yl)methyl)phenol]
16 | 0.1 to 10 µM | Cc1cc(OC2CCN(Cc3ccccc3F)CC2)c2cccc(F)c2n1 [Compound 2]

same assay, conditions: Table 2; generated using oocytes as in Example 4

Row | Compound | IC50
17 | Cc1cc(OC2CCN(Cc3ccccc3C(=O)Nc3ccc(C(=O)O)cc3)CC2)c2cccc(F)c2n1 [Compound 54] | 0.1 to 10 µM
18 | COc1ccc(F)c2c(OC3CCN(Cc4ccccc4C#N)CC3)cc(C)nc12 [Compound 35] | > 30 µM
19 | Cc1cc(OC2CCN(Cc3ccccc3C#N)CC2)c2cc(F)ccc2n1 [Compound 30] | 10.1 to 20 µM
20 | Cc1cc(OC2CCCN(Cc3ccccc3)CC2)c2cccc(F)c2n1 (stereo not drawn) [Compound 75] | > 30 µM
21 | Cc1cc(OC2CCN(Cc3ccccc3C(=O)O)C3CCCCC23)c2cccc(F)c2n1 (stereo not drawn) [Compound 82] | > 30 µM
22 | Cc1cc(OC2CCN(Cc3cccc(OCc4ccccc4)c3)CC2)c2ccccc2n1 [Compound 85] | > 30 µM
23 | Cc1cc(OC2CCN(Cc3ccncc3F)CC2)c2cccc(F)c2n1 [Compound 73] | 20.1 to 30 µM
24 | Cc1cc(OC2CCN(Cc3ccccc3C#N)CC2)c2cc(OC3CCCCO3)ccc2n1 (stereo not drawn) [Compound 52] | > 30 µM
25 | Cc1cc(OC2CCN(Cc3ccc(O)cc3F)CC2)c2cccc(F)c2n1 [Compound 49] | 0.1 to 10 µM
26 | Cc1cc(OC2CCN(Cc3c(F)cccc3C#N)CC2)c2cc(C#N)ccc2n1 [Compound 45] | > 30 µM
27 | Cc1cc(OC2CCN(Cc3ccc(O)c(C(=O)O)c3)CC2)c2cccc(F)c2n1 [Compound 90] | ≥ 30 µM
28 | COc1cccc(CN2CCC(Oc3cc(C)nc4c(F)cccc34)CC2)c1 [Compound 70] | 0.1 to 10 µM
29 | Cc1cc(OC2CCN(Cc3ccc(C(=O)O)cc3)CC2)c2ccccc2n1 [Compound 66] | > 30 µM
30 | Cc1cc(OC2CCN(Cc3c(F)cccc3C#N)CC2)c2cc(Br)ccc2n1 [Compound 44] | > 30 µM
31 | COc1cc(F)cc2c(OC3CCN(Cc4ccccc4)CC3)cc(C)nc12 [Compound 32] | 0.1 to 10 µM
32 | Cc1cc(OC2CCN(Cc3ccccc3)CC2)c2cc(-c3cccc(F)c3)ccc2n1 [Compound 55] | > 30 µM
33 | COC(=O)c1ccc(CN2CCC(Oc3cc(C)nc4ccccc34)CC2)cc1 [Compound 64] | 20.1 to 30 µM
34 | Cc1cc(OC2CCN(Cc3c(F)cccc3C#N)CC2)c2cccc(F)c2n1 [Compound 42] | 0.1 to 10 µM
35 | COc1cc(F)cc2c(OC3CCN(Cc4ccccc4C#N)CC3)cc(C)nc12 [Compound 34] | > 30 µM
36 | COc1ccc2cc(CN3CCC(Oc4cc(C)nc5c(F)cccc45)CC3)ccc2c1 [Compound 87] | 10.1 to 20 µM
37 | Cc1cc(OC2CCN(Cc3ccccc3)CC2)c2ccc(F)cc2n1 [Compound 80] | > 30 µM
38 | Cc1cc(OC2CCN(Cc3ccc(F)c(C#N)c3)CC2)c2ccccc2n1 [Compound 65] | > 30 µM
39 | Cc1cc(OC2CCN(Cc3cccnc3CO)CC2)c2cccc(F)c2n1 [Compound 76] | > 30 µM
40 | Cc1cc(OC2CCN(Cc3ccccc3-c3nnn[nH]3)CC2)c2cc(O)ccc2n1 [Compound 56] | 0.1 to 10 µM

Next, values leading:

Row | IC50 | Compound
41 | 20.1 to 30 µM | Cc1cc(OC2CCN(Cc3ccccc3)CC2)c2cc(C#N)ccc2n1 [Compound 46]
42 | > 30 µM | Cc1cc(OC2CCN(Cc3ccccc3C#N)CC2)c2cc(C#N)ccc2n1 [Compound 60]
43 | > 30 µM | Cc1cc(OC2CCN(Cc3ccccc3)CC2)c2cc(-c3nnn[nH]3)ccc2n1 [Compound 58]
44 | > 30 µM | COc1ccc(CC2CCC(Oc3cc(C)nc4c(F)cccc34)CC2)cc1 (stereo not drawn) [Compound 69]
45 | > 30 µM | COc1ccc(CN2CCC(Oc3cc(C)nc4ccc(Br)cc34)CC2)cc1 [Compound 48]
46 | 0.1 to 10 µM | Cc1cc(OC2CCN(C(C)c3ccccc3)CC2)c2ccccc2n1 (stereo not drawn) [Compound 38]
47 | > 30 µM | COc1cccc2c(OC3CCN(Cc4ccccc4C#N)CC3)cc(C)nc12 [Compound 91]
48 | > 30 µM | Cc1cc(OC2CCN(Cc3c(F)cccc3C(=O)O)CC2)c2cc(Br)ccc2n1 [Compound 43]
49 | 0.1 to 10 µM | COc1ccc(CN2CCC(Oc3cc(C)nc4c(F)cccc34)CC2)cc1 [Compound 41]
50 | 0.1 to 10 µM | COc1ccc(F)c2c(OC3CCN(Cc4ccccc4-c4nnn[nH]4)CC3)cc(C)nc12 [Compound 95]
51 | 0.1 to 10 µM | c1ccc(CN2CCC(Oc3ccnc4ccccc34)CC2)cc1 [Compound 68]
52 | > 30 µM | Cc1cc(OC2CC(C)N(Cc3ccccc3F)C(C)C2)c2ccccc2n1 (stereo not drawn) [Compound 67]
53 | 10.1 to 20 µM | Cc1cc(OC2CCN(Cc3ccccc3C(=O)O)CC2)c2cc(F)ccc2n1 [Compound 31]
54 | > 30 µM | Cc1cc(OC2CCN(Cc3ccc4ccccc4c3)CC2)c2cccc(F)c2n1 [Compound 84]
55 | > 30 µM | COc1ccc(F)c2c(OC3CCN(Cc4ccccc4)CC3)cc(C)nc12 [Compound 33]
56 | > 30 µM | c1ccc(CN2CCC(Oc3c4ccccc4nc4ccccc34)CC2)cc1 [Compound 89]
57 | 0.1 to 10 µM | Cc1cc(OC2CCN(Cc3cccc(F)c3)CC2)c2ccccc2n1 [Compound 27]
58 | 0.1 to 10 µM | Cc1cc(OC2CCN(Cc3ccccc3-c3nnn[nH]3)CC2)c2cccc(F)c2n1 [Compound 50, 4-[1-(2-(1H-tetrazol-5-yl-)benzyl)piperidin-4-yloxy]-8-fluoro2-methylquinoline]
59 | 0.1 to 10 µM | Cc1cc(OC2CCN(Cc3ccccc3)CC2)c2cc(F)ccc2n1 [Compound 29]
60 | 0.1 to 10 µM | COc1ncccc1CN1CCC(Oc2cc(C)nc3c(F)cccc23)CC1 [Compound 71]
61 | 20.1 to 30 µM | Cc1cc(OC2CCN(Cc3ccc(Br)cc3F)CC2)c2cccc(F)c2n1 [Compound 78]
62 | > 30 µM | Cc1cc(OC2CCN(Cc3cccc(C(=O)O)c3)CC2)c2cc(O)ccc2n1 [Compound 92]
63 | 20.1 to 30 µM | COc1cccc2c(OC3CCN(Cc4ccccc4-c4nnn[nH]4)CC3)cc(C)nc12 [Compound 93]
